Drawing on patent US9850183B2, “Conjugates derived from non-steroidal anti-inflammatory drugs and methods of use thereof in imaging” (Reiley Pharmaceuticals, Inc., priority 2014, dated 2017), this text covers IC50 for 23 compounds.

Where two headings read alike, the source gives them in different places.

Assay [1] has as its target T1, human COX-2 (Homo sapiens, UniProt P35354).
T1 construct: purchased Cayman Chemical Co., Ann Arbor, Mich., USA 701080
T1 sequence (P35354 18-604): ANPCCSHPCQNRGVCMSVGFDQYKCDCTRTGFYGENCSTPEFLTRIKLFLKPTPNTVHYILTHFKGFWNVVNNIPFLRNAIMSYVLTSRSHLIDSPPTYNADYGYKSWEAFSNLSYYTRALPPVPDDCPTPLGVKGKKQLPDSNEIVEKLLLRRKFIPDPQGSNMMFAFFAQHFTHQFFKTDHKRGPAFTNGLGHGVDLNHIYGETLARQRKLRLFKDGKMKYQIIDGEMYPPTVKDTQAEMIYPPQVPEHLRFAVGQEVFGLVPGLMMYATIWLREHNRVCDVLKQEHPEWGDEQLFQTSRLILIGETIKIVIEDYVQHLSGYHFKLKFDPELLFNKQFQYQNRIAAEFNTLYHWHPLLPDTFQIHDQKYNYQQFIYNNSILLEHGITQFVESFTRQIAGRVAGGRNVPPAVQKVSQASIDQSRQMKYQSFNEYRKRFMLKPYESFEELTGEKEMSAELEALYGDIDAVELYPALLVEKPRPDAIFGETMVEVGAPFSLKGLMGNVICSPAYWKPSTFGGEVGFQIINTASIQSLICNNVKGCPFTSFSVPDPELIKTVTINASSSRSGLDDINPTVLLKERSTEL
Briefly: COX-2 enzyme assay (EIA kit, PGF2α readout). It counts as biochemical. On the procedure: The ability of compounds to inhibit ovine COX-1 and human COX-2 was determined using a commercially available enzyme immunoassay (EIA) kit (catalog no. 701090 (COX-1); 701080 (COX-2) Cayman Chemical Co., Ann Arbor, Mich., USA) according to the manufacturer's protocol. COX catalyzes the first step in the biosynthesis of AA to PGH2. PGF2α, produced from PGH2 by reduction with stannous chloride, was measured by EIA (ACE™ competitive EIA, Cayman Chemical, Ann Arbor, Mich., USA). Briefly, to a series of supplied reaction buffer solutions [960 μl 0.1 M Tris-HCl (pH 8.0) containing 5 mM EDTA and 2 mM phenol] with either COX-1 or COX-2 (10 μl) enzyme in the presence of heme (10 μl), 10 μl of various concentrations of test drug solutions were added. These solutions were incubated for 15 min at 37° C. and subsequently 10 μl AA solution (100 μM) was added. The COX reaction was stopped by the addition of 30 μl stannus chloride after 2 min, mixed immediately, supernatants were 2000 fold diluted. The produced PGF2α was measured by EIA. This assay is based on the competition between PGs and a PG-acetylcholinesterase conjugate (PG tracer) for a limited amount of PG antiserum. The amount of PG tracer that is able to bind to the PG antiserum is inversely proportional to the concentration of PGs in the wells since the concentration of the PG tracer is held at a constant while the concentration of PGs varies. The specific antiserum-PG complex bound to a mouse anti-rabbit IgG that had been previously attached to the well. The plate was washed to remove any unbound reagents and 200 μl Ellman's reagent (5,5′-dithiobis-(2-nitrobenzoic acid), which contains the substrate to acetylcholine esterase, was added to the well. The product of this enzymatic reaction generates a distinct yellow color that absorbs at 406 nm. The intensity of this color, determined by spectrophotometry, is proportional to the amount of PG tracer bound to the well, which is inversely proportional to the amount of PGs present in the well during the incubation. Percent inhibition was calculated by the comparison of the compounds treated to the various control incubations.
(§1) Dose-response curves were generated using XLFit (IDBS, Surrey, UK) or Prism (GraphPad Software, La Jolla, Calif., US) to calculate IC50 values for each compound tested.

Assay [2] addresses T2, COX-2 (Mus musculus, UniProt Q05769).
T2 construct: endogenous in cells; host or cells: RAW264.7 murine macrophages, stimulated with LPS and IFN-g
T2 sequence (Q05769 18-604): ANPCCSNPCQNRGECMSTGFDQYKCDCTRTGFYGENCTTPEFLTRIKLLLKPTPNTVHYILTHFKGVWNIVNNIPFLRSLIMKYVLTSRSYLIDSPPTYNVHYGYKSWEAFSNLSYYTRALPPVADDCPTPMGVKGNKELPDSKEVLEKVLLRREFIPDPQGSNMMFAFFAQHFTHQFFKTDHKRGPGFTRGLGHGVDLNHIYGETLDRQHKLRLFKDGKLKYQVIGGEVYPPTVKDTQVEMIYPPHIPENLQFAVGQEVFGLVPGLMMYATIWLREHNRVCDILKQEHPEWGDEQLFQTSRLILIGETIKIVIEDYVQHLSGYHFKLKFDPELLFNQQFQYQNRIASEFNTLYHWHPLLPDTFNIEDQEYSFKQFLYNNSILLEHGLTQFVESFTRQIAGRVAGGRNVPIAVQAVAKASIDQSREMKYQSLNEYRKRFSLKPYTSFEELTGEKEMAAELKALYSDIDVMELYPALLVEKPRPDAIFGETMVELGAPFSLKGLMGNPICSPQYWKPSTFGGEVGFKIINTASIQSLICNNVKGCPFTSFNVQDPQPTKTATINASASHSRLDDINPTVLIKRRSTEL
Briefly: Cell-based COX-2 assay (PGE2 in LPS/IFN-g stimulated RAW264.7 cells). To be noted: RAW264.7 murine macrophages, 1 μg/ml LPS and 10 U/ml IFN-g for 7 h, PGE2 readout. On the procedure: RAW264.7 murine macrophages were obtained from the Cell Bank of Shanghai Institute of Biochemistry and Cell Biology, Chinese Academy of Sciences (Shanghai, China) and cultured in Dulbecco's modified Eagle's medium containing 100 U/ml penicillin and 100 μg/ml streptomycin at 37° C. in 5% CO2.
RAW264.7 cells were plated at a density of 2.5×10^5/ml cells in a 96-well plate with 0.1 ml of culture medium per well and cultured overnight. The cells were pre-incubated for 30 min with various doses of compounds and stimulated for 7 h with 1 μg/ml LPS and 10 U/ml IFN-g. The cell culture supernatants were collected immediately following treatment and centrifuged at 1,000 rpm for 5 min to remove the particulate matter. PGE2 was determined using a Prostaglandin E2 assay kit (catalog no. 62P2APEB; Cisbio Co.,). 10 μL of cell supernatant was transferred to a 384-well low volume plate (e.g. Corning® 3544), 5 μL of PGE2-d2 was added, followed by 5 μL anti-PGE2 Cryptate as a negative control. Replace the standard by 10 μL of diluent and PGE2-d2 by 5 μL of reconstitution buffer, Cal0 (for positive control), replace the standard by 10 μL of diluent. Incubate at 4° C. overnight. After centrifuging at 1,000 rpm for 1 min, the dual fluorescence emissions of 615 and 665 nm with a 320 nm excitation were measured using an Envision plate reader (Perkin Elmer, Shelton, Conn.). The results are expressed as the ratio of 665 nm/615 nm emissions.
as §1

[3] abbreviates: human COX-2 enzyme, EIA, 15 min pre-incubation at 37° C., read-out: COX-2 IC50 (μM) enzyme.

`COc1ccc2c(c1)c(CC(=O)NCCCCNC(=O)C[N]1C(=O)C[N]3C(=O)C[N]4C(=O)C[S][Re]143=[O])c(C)n2C(=O)c1ccc(Cl)cc1` [Compound 23]: in assay [1] (setting [3]), the half-inhibitory concentration (IC50) worked out at 12 µM.

Take `COc1ccc2c(c1)c(CC(=O)NCCCCCCNC(=O)C[N]1C(=O)C[N]3C(=O)C[N]4C(=O)C[S][Re]143=[O])c(C)n2C(=O)c1ccc(Cl)cc1` [Compound 27]: the IC50 in assay [1] (setting [3]) turned out to be 0.6 µM; in assay [2], 12.7 µM.

The compound `Cc1c(CC(=O)O)c2cc(OCCCCNC(=O)C[N]3C(=O)C[N]4C(=O)C[N]5C(=O)C[S][Re]354=[O])ccc2n1C(=O)c1ccc(Cl)cc1` [Compound 35] registered an IC50 in assay [1] of 1.6 µM.

`Cc1c(CC(=O)O)c2cc(OCCCCCCNC(=O)C[N]3C(=O)C[N]4C(=O)C[N]5C(=O)C[S][Re]354=[O])ccc2n1C(=O)c1ccc(Cl)cc1` [Compound 39]: the IC50 in assay [1] was 1.1 µM.

As to `CCOC(=O)C1C[S][Re]23(=[O])[S]CC(C(=O)NCCOCCOCCNC(=O)Cc4c(C)n(C(=O)c5ccc(Cl)cc5)c5ccc(OC)cc45)[N]2CC[N]13` (stereo not drawn) [Compound 178], the half-inhibitory concentration (IC50) is 0.2 µM in assay [1] (setting [3]) and 1.8 µM in assay [2].

For `CCOC(=O)C1C[S][Re]23(=[O])[S]CC(C(=O)NCCCCCCNC(=O)Cc4c(C)n(C(=O)c5ccc(Cl)cc5)c5ccc(OC)cc45)[N]2CC[N]13` (stereo not drawn) [Compound 181], the IC50 came out at 1 µM in assay [1] (setting [3]) and 1.5 µM in assay [2].

Regarding `CCOC(=O)C1C[S][Re]23(=[O])[S]CC(C(=O)NCCCCCCCNC(=O)Cc4c(C)n(C(=O)c5ccc(Cl)cc5)c5ccc(OC)cc45)[N]2CC[N]13` (stereo not drawn) [Compound 182], the IC50 in assay [1] (setting [3]) was determined as 0.8 µM; in assay [2], 0.6 µM.

In the case of `CCOC(=O)C1C[S][Re]23(=[O])[S]CC(C(=O)NCCCCCCCCNC(=O)Cc4c(C)n(C(=O)c5ccc(Cl)cc5)c5ccc(OC)cc45)[N]2CC[N]13` (stereo not drawn) [Compound 183], the values for the 50% inhibitory concentration (IC50) in assay [1] (setting [3]) and in assay [2] were 0.4 µM and 0.7 µM, respectively.

In the case of `COc1ccc2c(c1)c(CC(=O)NCCCCCCNC(=O)C1C[S][Re]34(=[O])[S]CC(C(=O)OC(C)C)[N]3CC[N]14)c(C)n2C(=O)c1ccc(Cl)cc1` (stereo not drawn) [Compound 185], the half-inhibitory concentration (IC50) was found to be 1.2 µM in assay [1] (setting [3]) and 0.5 µM in assay [2].

Take `COc1ccc2c(c1)c(CC(=O)NCCNC(=O)[c-]1cccc1)c(C)n2C(=O)c1ccc(Cl)cc1.[C-]#[O+].[C-]#[O+].[C-]#[O+].[Re+]` [Compound 243]: the IC50 in assay [1] (setting [3]) turned out to be 0.5 µM; in assay [2] it was 0.7 µM.

On to `COc1ccc2c(c1)c(CC(=O)NCCOCCNC(=O)[c-]1cccc1)c(C)n2C(=O)c1ccc(Cl)cc1.[C-]#[O+].[C-]#[O+].[C-]#[O+].[Re+]` [Compound 244], for which the IC50 was over 30 µM in assay [1] (setting [3]) and 1.5 µM in assay [2].

Consider `COc1ccc2c(c1)c(CC(=O)NCCCCCCCCNC(=O)[c-]1cccc1)c(C)n2C(=O)c1ccc(Cl)cc1.[C-]#[O+].[C-]#[O+].[C-]#[O+].[Re+]` [Compound 247], for which the figures for the 50% inhibitory concentration (IC50) in assay [1] (setting [3]) and in assay [2] were 0.2 µM and 2.6 µM, respectively.

For `COc1ccc2c(c1)c(CC(=O)NCCOCCOCCOCCNC(=O)[c-]1cccc1)c(C)n2C(=O)c1ccc(Cl)cc1.[C-]#[O+].[C-]#[O+].[C-]#[O+].[Re+]` [Compound 248], the IC50 in assay [1] (setting [3]) is 0.2 µM; in assay [2], over 30 µM.

Turning to `COc1ccc2c(c1)c(CC(=O)NCc1ccc(CNC(=O)[c-]3cccc3)cc1)c(C)n2C(=O)c1ccc(Cl)cc1.[C-]#[O+].[C-]#[O+].[C-]#[O+].[Re+]` [Compound 249], the IC50 in assay [1] (setting [3]) worked out at 1.1 µM; in assay [2], 4.4 µM.

Turning to `COc1ccc2c(c1)c(CC(=O)NCCOCCOCCNC(=O)c1ccc[cH-]1)c(C)n2C(=O)c1ccc(Cl)cc1.[C-]#[O+].[C-]#[O+].[C-]#[O+].[Re+]` [Compound 251], the IC50 in assay [1] (setting [3]) was 0.3 µM; in assay [2] it was over 30 µM.

On to `COc1ccc2c(c1)c(CC(=O)NCCCC[N+]13CC[S][Re-]14(=[O])[S]CC[N]4C(=O)C3)c(C)n2C(=O)c1ccc(Cl)cc1` (stereo not drawn) [Compound 261], for which the 50% inhibitory concentration (IC50) in assay [1] (setting [3]) stood at 0.8 µM; in assay [2], 1.8 µM.

With `COc1ccc2c(c1)c(CC(=O)NCCOCC[N+]13CC[S][Re-]14(=[O])[S]CC[N]4C(=O)C3)c(C)n2C(=O)c1ccc(Cl)cc1` (stereo not drawn) [Compound 262], the IC50 in assay [1] was 0.9 µM; in assay [2], 1.7 µM.

For `COc1ccc2c(c1)c(CC(=O)NCCCCC[N+]13CC[S][Re-]14(=[O])[S]CC[N]4C(=O)C3)c(C)n2C(=O)c1ccc(Cl)cc1` (stereo not drawn) [Compound 263], the IC50 in assay [1] and in assay [2] was 0.3 µM in each case.

With `COc1ccc2c(c1)c(CC(=O)NCCCCCCCC[N+]13CC[S][Re-]14(=[O])[S]CC[N]4C(=O)C3)c(C)n2C(=O)c1ccc(Cl)cc1` (stereo not drawn) [Compound 265], the results for the half-maximal inhibitory concentration (IC50) in assay [1] and in assay [2] were 2.1 µM and 0.1 µM, respectively.

Consider `COc1ccc2c(c1)c(CC(=O)NCCCC(C)(C)NC(=O)c1ccc[cH-]1)c(C)n2C(=O)c1ccc(Cl)cc1.[C-]#[O+].[C-]#[O+].[C-]#[O+].[Re+]` [Compound 311], for which the IC50 in assay [2] came to 0.4 µM.

The compound `COc1ccc2c(c1)c(CC(=O)NCCCCCC(C)(C)NC(=O)c1ccc[cH-]1)c(C)n2C(=O)c1ccc(Cl)cc1.[C-]#[O+].[C-]#[O+].[C-]#[O+].[Re+]` [Compound 313] returned an IC50 in assay [2] of 0.2 µM.

In the case of `COc1ccc2c(c1)c(CC(=O)NCCCNCCC[N+]13CC[S][Re-]14(=[O])[S]CC[N]4C(=O)C3)c(C)n2C(=O)c1ccc(Cl)cc1` (stereo not drawn) [Compound 320], 5 µM corresponded to half-maximal inhibition in assay [2] (IC50).

In the case of `COc1ccc2c(c1)c(CCNC(=O)CC[N+]13CC[S][Re-]14(=[O])[S]CC[N]4C(=O)C3)c(C)n2C(=O)c1ccc(Cl)cc1` (stereo not drawn) [Compound 356], the IC50 in assay [2] came to 1.6 µM.
